biological target: T1, chicken gizzard smooth muscle myosin subfragment-1 chemically crosslinked to cardiac or skeletal actin (Gallus gallus, UniProt P10587); assay: Smooth muscle myosin ATPase dose response assay (pyruvate kinase/horseradish peroxidase/pyruvate oxidase-coupled, amplex red fluorescence); format: biochemical; settings: read-out: IC50 Arithmetic Mean
T1 construct: chicken gizzard smooth muscle myosin subfragment-1; from tissue; host or cells: chicken gizzard
Outline: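 Inhibition is measured in a peroxidase/pyruvate oxidase-linked format at pH 7.00 and 22° C, 0.15 mM ATP final. Myosin input is titrated to a target turnover since active fraction differs between preparations.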

T1 sequence (P02607 2-151): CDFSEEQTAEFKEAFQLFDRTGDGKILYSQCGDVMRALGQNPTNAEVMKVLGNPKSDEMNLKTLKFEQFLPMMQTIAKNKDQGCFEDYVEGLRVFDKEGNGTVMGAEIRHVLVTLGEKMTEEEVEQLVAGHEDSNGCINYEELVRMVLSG
T1 sequence (P10587 84-789): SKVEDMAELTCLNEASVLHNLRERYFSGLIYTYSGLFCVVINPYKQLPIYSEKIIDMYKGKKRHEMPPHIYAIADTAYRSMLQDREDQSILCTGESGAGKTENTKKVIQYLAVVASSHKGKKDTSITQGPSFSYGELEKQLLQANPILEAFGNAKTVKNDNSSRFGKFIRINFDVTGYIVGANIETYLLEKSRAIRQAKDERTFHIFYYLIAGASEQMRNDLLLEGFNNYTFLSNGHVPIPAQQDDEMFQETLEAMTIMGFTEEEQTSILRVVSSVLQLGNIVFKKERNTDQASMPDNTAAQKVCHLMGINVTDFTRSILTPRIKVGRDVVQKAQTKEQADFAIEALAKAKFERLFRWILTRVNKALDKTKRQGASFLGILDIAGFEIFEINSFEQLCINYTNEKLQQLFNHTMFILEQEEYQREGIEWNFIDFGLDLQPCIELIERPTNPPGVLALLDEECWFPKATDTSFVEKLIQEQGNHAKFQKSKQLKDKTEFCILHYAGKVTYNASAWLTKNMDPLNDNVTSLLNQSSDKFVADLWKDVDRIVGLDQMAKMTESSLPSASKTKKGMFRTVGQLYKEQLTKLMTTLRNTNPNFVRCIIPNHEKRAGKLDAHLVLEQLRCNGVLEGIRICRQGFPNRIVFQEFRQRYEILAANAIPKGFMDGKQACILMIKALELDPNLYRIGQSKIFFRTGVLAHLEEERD

Compound | IC50 [nM]
CC(C)CCNc1nc(-c2ccccc2)ccc1C(=O)NCc1cccnc1 [{2-[3-methylbutyl)amino]-6-phenyl(3-pyridyl)}-N-(3-pyridylmethyl)carboxamide] | 2480
O=C(NCc1cccnc1)c1ccc(-c2ccccc2)nc1NCCC1OCCO1 [{2-[(2-(1,3-dioxolan-2-yl)ethyl)amino]-6-phenyl(3-pyridyl)}-N-(3-pyridylmethyl)carboxamide] | 7120
O=C(NCc1cccnc1)c1ccc(-c2ccccc2)nc1NCCc1ccco1 [{2-[(2-(2-furyl)ethyl)amino]-6-phenyl(3-pyridyl)}-N-(3-pyridylmethyl)carboxamide] | 294
O=C(NCc1cccnc1)c1ccc(-c2nccs2)nc1NCCc1ccccn1 [{2-[(2-(2-pyridyl)ethyl)amino]-6-(1,3-thiazol-2-yl)(3-pyridyl)}-N-(3-pyridylmethyl)carboxamide] | 8660
O=C(NCc1cccnc1)c1ccc(-c2cccs2)nc1NCCc1ccccn1 [{2-[(2-(2-pyridyl)ethyl)amino]-6-(2-thienyl)(3-pyridyl)}-N-(3-pyridylmethyl)carboxamide] | 797
C=Cc1ccccc1-c1ccc(C(=O)NCc2cccnc2)c(NCCc2ccccn2)n1 [{2-[(2-(2-pyridyl)ethyl)amino]-6-(2-vinylphenyl)(3-pyridyl)}-N-(3-pyridylmethyl)carboxamide] | 5340
O=C(NCc1cccnc1)c1ccc(-c2ccsc2)nc1NCCc1ccccn1 [{2-[(2-(2-pyridyl)ethyl)amino]-6-(3-thienyl)(3-pyridyl)}-N-(3-pyridylmethyl)carboxamide] | 414
O=C(NCc1cccnc1)c1ccc(-c2cccc(C(F)(F)F)c2)nc1NCCc1ccccn1 [{2-[(2-(2-pyridyl)ethyl)amino]-6-[3-(trifluoromethyl)phenyl](3-pyridyl)}-N-(3-pyridylmethyl)carboxamide] | 5930
O=C(NCc1cccnc1)c1ccc(-c2ccc(C(F)(F)F)cc2)nc1NCCc1ccccn1 [{2-[(2-(2-pyridyl)ethyl)amino]-6-[4-(trifluoromethyl)phenyl](3-pyridyl)}-N-(3-pyridylmethyl)carboxamide] | 2290
O=C(NCc1cccnc1)c1ccc(-c2ccccc2)nc1NCCC1=CCCCC1 [{2-[(2-cyclohex-1-enylethyl)amino]-6-phenyl(3-pyridyl)}-N-(3-pyridylmethyl)carboxamide] | 532
O=C(NCc1cccnc1)c1ccc(-c2ccccc2)nc1NCCC1CCCCC1 [{2-[(2-cyclohexylethyl)amino]-6-phenyl(3-pyridyl)}-N-(3-pyridylmethyl)carboxamide] | 1850
O=C(NCc1cccnc1)c1ccc(-c2ccccc2)nc1NCC(O)c1ccccc1 (centres unmarked) [{2-[(2-hydroxy-2-phenylethyl)amino]-6-phenyl(3-pyridyl)}-N-(3-pyridylmethyl)carboxamide] | 1940
O=C(NCc1cccnc1)c1ccc(-c2ccccc2)nc1NCCc1c[nH]cn1 [{2-[(2-imidazol-4-ylethyl)amino]-6-phenyl(3-pyridyl)}-N-(3-pyridylmethyl)carboxamide] | 9770
O=C(NCc1cccnc1)c1ccc(-c2ccccc2)nc1NCCN1CCOCC1 [{2-[(2-morpholin-4-ylethyl)amino]-6-phenyl(3-pyridyl)}-N-(3-pyridylmethyl)carboxamide] | 37300
O=C(NCc1cccnc1)c1ccc(-c2ccccc2)nc1NCCCn1ccnc1 [{2-[(3-imidazolylpropyl)amino]-6-phenyl(3-pyridyl)}-N-(3-pyridylmethyl)carboxamide] | 30300
C[C@@H](CNc1nc(-c2ccccc2)ccc1C(=O)NCc1cccnc1)c1ccccc1 [{2-[((2R)-2-phenylpropyl)amino]-6-phenyl(3-pyridyl)}-N-(3-pyridylmethyl)carboxamide] | 17300
O=C(NCc1cccnc1)c1ccc(-c2ccccc2)nc1NCC1CCCO1 (centres unmarked) [{2-[(oxolan-2-ylmethyl)amino]-6-phenyl(3-pyridyl)}-N-(3-pyridylmethyl)carboxamide] | 4830
O=C(NCc1cccnc1)c1cc(F)c(-c2cn[nH]c2)nc1NCCn1cccn1 [{5-fluoro-6-pyrazol-4-yl-2-[(2-pyrazolylethyl)amino](3-pyridyl)}-N-(3-pyridylmethyl)carboxamide] | 211
Cn1cc(-c2ccc(C(=O)NCc3cccnc3)c(NCCc3ccccn3)n2)cn1 [{6-(1-methylpyrazol-4-yl)-2-[(2-(2-pyridyl)ethyl)amino](3-pyridyl)}-N-(3-pyridylmethyl)carboxamide] | 2530
Cc1cccc(-c2ccc(C(=O)NCc3cccnc3)c(NCCc3ccccn3)n2)c1C [{6-(2,3-dimethylphenyl)-2-[(2-(2-pyridyl)ethyl)amino](3-pyridyl)}-N-(3-pyridylmethyl)carboxamide] | 6940
Cc1ccc(-c2ccc(C(=O)NCc3cccnc3)c(NCCc3ccccn3)n2)c(C)c1 [{6-(2,4-dimethylphenyl)-2-[(2-(2-pyridyl)ethyl)amino](3-pyridyl)}-N-(3-pyridylmethyl)carboxamide] | 3960

Compound | IC50 [nM]
Cc1ccc(C)c(-c2ccc(C(=O)NCc3cccnc3)c(NCCc3ccccn3)n2)c1 [{6-(2,5-dimethylphenyl)-2-[(2-(2-pyridyl)ethyl)amino](3-pyridyl)}-N-(3-pyridylmethyl)carboxamide] | 13600
O=C(NCc1cccnc1)c1ccc(-c2ccccc2Cl)nc1NCCc1ccccn1 [{6-(2-chlorophenyl)-2-[(2-(2-pyridyl)ethyl)amino](3-pyridyl)}-N-(3-pyridylmethyl)carboxamide] | 4440
N#Cc1ccccc1-c1ccc(C(=O)NCc2cccnc2)c(NCCc2ccco2)n1 [{6-(2-cyanophenyl)-2-[(2-(2-furyl)ethyl)amino](3-pyridyl)}-N-(3-pyridylmethyl)carboxamide] | 65
N#Cc1ccccc1-c1ccc(C(=O)NCc2cccnc2)c(NCCc2ccccn2)n1 [{6-(2-cyanophenyl)-2-[(2-(2-pyridyl)ethyl)amino](3-pyridyl)}-N-(3-pyridylmethyl)carboxamide] | 460
N#Cc1ccccc1-c1ccc(C(=O)NCc2cccnc2)c(NCCc2cccs2)n1 [{6-(2-cyanophenyl)-2-[(2-(2-thienyl)ethyl)amino](3-pyridyl)}-N-(3-pyridylmethyl)carboxamide] | 29
N#Cc1ccccc1-c1ccc(C(=O)NCc2cccnc2)c(NCCC2CCCO2)n1 (centres unmarked) [{6-(2-cyanophenyl)-2-[(2-oxolan-2-ylethyl)amino](3-pyridyl)}-N-(3-pyridylmethyl)carboxamide] | 920
O=C(NCc1cccnc1)c1ccc(-c2ccccc2F)nc1NCCc1ccccn1 [{6-(2-fluorophenyl)-2-[(2-(2-pyridyl)ethyl)amino](3-pyridyl)}-N-(3-pyridylmethyl)carboxamide] | 1320
O=Cc1ccccc1-c1ccc(C(=O)NCc2cccnc2)c(NCCc2ccccn2)n1 [{6-(2-formylphenyl)-2-[(2-(2-pyridyl)ethyl)amino](3-pyridyl)}-N-(3-pyridylmethyl)carboxamide] | 8750
O=C(NCc1cccnc1)c1ccc(-c2ccccc2O)nc1NCCc1ccccn1 [{6-(2-hydroxyphenyl)-2-[(2-(2-pyridyl)ethyl)amino](3-pyridyl)}-N-(3-pyridylmethyl)carboxamide] | 2170
COc1ccccc1-c1ccc(C(=O)NCc2cccnc2)c(NCCc2ccccn2)n1 [{6-(2-methoxyphenyl)-2-[(2-(2-pyridyl)ethyl)amino](3-pyridyl)}-N-(3-pyridylmethyl)carboxamide] | 17900
Cc1ccccc1-c1ccc(C(=O)NCc2cccnc2)c(NCCc2ccccn2)n1 [{6-(2-methylphenyl)-2-[(2-(2-pyridyl)ethyl)amino](3-pyridyl)}-N-(3-pyridylmethyl)carboxamide] | 11000
O=C(NCc1cccnc1)c1ccc(-c2ccc(Cl)c(Cl)c2)nc1NCCc1ccccn1 [{6-(3,4-dichlorophenyl)-2-[(2-(2-pyridyl)ethyl)amino](3-pyridyl)}-N-(3-pyridylmethyl)carboxamide] | 3370
O=C(NCc1cccnc1)c1ccc(-c2ccc(F)c(F)c2)nc1NCCc1ccccn1 [{6-(3,4-difluorophenyl)-2-[(2-(2-pyridyl)ethyl)amino](3-pyridyl)}-N-(3-pyridylmethyl)carboxamide] | 1210
Cc1ccc(-c2ccc(C(=O)NCc3cccnc3)c(NCCc3ccccn3)n2)cc1C [{6-(3,4-dimethylphenyl)-2-[(2-(2-pyridyl)ethyl)amino](3-pyridyl)}-N-(3-pyridylmethyl)carboxamide] | 3380
Cc1cc(C)cc(-c2ccc(C(=O)NCc3cccnc3)c(NCCc3ccccn3)n2)c1 [{6-(3,5-dimethylphenyl)-2-[(2-(2-pyridyl)ethyl)amino](3-pyridyl)}-N-(3-pyridylmethyl)carboxamide] | 10100
O=C(NCc1cccnc1)c1ccc(-c2cccc(Cl)c2)nc1NCCc1ccccn1 [{6-(3-chlorophenyl)-2-[(2-(2-pyridyl)ethyl)amino](3-pyridyl)}-N-(3-pyridylmethyl)carboxamide] | 1970
N#Cc1cccc(-c2ccc(C(=O)NCc3cccnc3)c(NCCc3ccccn3)n2)c1 [{6-(3-cyanophenyl)-2-[(2-(2-pyridyl)ethyl)amino](3-pyridyl)}-N-(3-pyridylmethyl)carboxamide] | 2990
O=C(NCc1cccnc1)c1ccc(-c2cccc(F)c2)nc1NCCc1ccccn1 [{6-(3-fluorophenyl)-2-[(2-(2-pyridyl)ethyl)amino](3-pyridyl)}-N-(3-pyridylmethyl)carboxamide] | 915
O=C(NCc1cccnc1)c1ccc(-c2cccc(O)c2)nc1NCCc1ccccn1 [{6-(3-hydroxyphenyl)-2-[(2-(2-pyridyl)ethyl)amino](3-pyridyl)}-N-(3-pyridylmethyl)carboxamide] | 790
COc1cccc(-c2ccc(C(=O)NCc3cccnc3)c(NCCc3ccccn3)n2)c1 [{6-(3-methoxyphenyl)-2-[(2-(2-pyridyl)ethyl)amino](3-pyridyl)}-N-(3-pyridylmethyl)carboxamide] | 14900

Reference: patent US7932270B2 (Cytokinetics, Inc., priority 2006, dated 2011)
